Assay results published in ChEMBL document CHEMBL5465560, “Selectivity Literature for EUbOPEN Chemogenomic Library” (2024).
Values belong to the compound of their own block, whether it stands above or below them.

How the values were obtained:
[1] = biological target: Glutamate receptor ionotropic, NMDA 1 (Homo sapiens) (UniProt Q05586); experiment: Selectivity interaction (Panel of kinases, GPCRs, ion channels and transporters (enzymatic assay)) EUB0000266bCl GRIN1
[2] = biological target: Serine/threonine-protein kinase 26 (Homo sapiens, UniProt Q9P289); experiment: Selectivity interaction (ActivX KiNativ screen (kinase selectivity in THP-1 cell lysates)) EUB0000639a STK26; type: subcellular; conditions: lysate, at 0.04 µM
[3] = test system: T1, Receptor-type tyrosine-protein kinase FLT3 (Homo sapiens), P36888 [D835H]; conditions: at 10 µM
T1 sequence (whole entry): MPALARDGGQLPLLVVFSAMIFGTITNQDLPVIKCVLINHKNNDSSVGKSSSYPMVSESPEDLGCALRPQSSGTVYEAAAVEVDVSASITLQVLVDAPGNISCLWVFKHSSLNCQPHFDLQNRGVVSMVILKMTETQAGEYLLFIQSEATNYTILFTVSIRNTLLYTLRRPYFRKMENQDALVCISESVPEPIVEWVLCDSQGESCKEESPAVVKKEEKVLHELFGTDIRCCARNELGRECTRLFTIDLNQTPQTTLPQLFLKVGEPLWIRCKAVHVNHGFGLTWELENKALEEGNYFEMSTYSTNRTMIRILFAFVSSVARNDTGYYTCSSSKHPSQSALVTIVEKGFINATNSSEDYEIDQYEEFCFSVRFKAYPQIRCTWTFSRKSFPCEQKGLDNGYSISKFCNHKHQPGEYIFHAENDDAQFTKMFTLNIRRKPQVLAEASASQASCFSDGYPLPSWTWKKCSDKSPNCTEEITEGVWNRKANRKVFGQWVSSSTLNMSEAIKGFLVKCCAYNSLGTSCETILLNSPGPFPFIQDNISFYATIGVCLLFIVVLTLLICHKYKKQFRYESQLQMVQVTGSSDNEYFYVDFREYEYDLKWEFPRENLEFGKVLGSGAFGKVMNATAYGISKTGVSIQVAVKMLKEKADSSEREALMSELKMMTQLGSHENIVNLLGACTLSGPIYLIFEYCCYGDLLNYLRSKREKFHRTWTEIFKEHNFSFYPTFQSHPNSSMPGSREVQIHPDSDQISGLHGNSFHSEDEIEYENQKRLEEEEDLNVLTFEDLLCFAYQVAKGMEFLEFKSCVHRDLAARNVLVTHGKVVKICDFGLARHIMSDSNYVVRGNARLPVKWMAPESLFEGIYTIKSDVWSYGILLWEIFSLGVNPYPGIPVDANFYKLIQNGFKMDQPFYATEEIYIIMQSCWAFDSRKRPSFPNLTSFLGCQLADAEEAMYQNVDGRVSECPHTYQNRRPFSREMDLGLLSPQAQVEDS

[4] = biological target: T2, Peripheral plasma membrane protein CASK (Homo sapiens) (UniProt O14936); experiment: Selectivity interaction (KinomeScan (DiscoverX)) EUB0000229b CASK; conditions: at 10 µM
T2 sequence (whole entry): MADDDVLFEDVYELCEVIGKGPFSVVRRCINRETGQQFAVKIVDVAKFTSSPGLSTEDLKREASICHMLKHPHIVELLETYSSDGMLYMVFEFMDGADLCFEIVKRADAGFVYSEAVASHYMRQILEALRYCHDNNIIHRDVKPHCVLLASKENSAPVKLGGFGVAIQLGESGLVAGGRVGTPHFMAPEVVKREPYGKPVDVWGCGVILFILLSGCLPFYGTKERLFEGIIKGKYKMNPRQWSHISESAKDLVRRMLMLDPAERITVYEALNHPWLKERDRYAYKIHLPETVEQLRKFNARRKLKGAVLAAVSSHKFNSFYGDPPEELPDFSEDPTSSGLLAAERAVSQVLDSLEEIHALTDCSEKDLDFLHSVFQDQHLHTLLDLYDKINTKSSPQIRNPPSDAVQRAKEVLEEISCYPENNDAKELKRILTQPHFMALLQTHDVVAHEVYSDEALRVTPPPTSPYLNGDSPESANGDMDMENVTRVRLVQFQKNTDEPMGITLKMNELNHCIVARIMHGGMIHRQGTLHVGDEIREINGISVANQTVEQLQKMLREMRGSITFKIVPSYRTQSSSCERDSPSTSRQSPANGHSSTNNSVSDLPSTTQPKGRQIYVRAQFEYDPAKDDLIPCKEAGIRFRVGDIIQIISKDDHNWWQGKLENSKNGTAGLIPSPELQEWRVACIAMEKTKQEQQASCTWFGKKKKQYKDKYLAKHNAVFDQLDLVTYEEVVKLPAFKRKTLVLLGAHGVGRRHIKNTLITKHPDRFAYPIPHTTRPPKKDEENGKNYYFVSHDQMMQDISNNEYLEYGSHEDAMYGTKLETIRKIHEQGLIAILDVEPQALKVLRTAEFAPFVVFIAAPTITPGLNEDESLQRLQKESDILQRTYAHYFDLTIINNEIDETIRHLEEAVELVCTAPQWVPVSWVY

[5] = biological target: Death-associated protein kinase 3 (Homo sapiens) (UniProt O43293); experiment: Selectivity interaction (ProQinase) EUB0000171b DAPK3
[6] = biological target: Focal adhesion kinase 1 (Homo sapiens, UniProt Q05397); experiment: Selectivity interaction (ProQinase) EUB0000171b PTK2
[7] = biological target: Protein kinase C beta type (Homo sapiens, UniProt P05771); experiment: Selectivity interaction (ProQinase) EUB0000171b PRKCB; conditions: at 5 µM
Protein kinase C beta type, sequence (P05771 2-671 limits assumed): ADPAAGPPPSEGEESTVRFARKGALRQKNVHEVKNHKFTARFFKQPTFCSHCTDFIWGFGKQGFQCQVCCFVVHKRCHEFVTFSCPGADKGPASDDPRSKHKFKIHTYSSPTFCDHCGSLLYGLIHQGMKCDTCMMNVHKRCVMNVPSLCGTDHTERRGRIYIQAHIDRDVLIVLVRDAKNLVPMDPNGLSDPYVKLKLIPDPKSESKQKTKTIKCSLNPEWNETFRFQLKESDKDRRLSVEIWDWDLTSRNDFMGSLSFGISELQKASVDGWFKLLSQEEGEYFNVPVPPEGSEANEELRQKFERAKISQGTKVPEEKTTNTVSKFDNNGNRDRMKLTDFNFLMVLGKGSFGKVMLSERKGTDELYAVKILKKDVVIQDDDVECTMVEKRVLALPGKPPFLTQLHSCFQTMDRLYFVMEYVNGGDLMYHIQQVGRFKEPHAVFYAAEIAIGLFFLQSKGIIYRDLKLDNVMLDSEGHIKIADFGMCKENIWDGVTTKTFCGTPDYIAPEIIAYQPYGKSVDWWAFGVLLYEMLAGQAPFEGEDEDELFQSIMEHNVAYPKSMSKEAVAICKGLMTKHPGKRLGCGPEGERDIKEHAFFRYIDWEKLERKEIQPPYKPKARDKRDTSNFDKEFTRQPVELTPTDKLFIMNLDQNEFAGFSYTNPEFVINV

Death-associated protein kinase 3 (Homo sapiens), sequence (O43293 whole entry, looked up): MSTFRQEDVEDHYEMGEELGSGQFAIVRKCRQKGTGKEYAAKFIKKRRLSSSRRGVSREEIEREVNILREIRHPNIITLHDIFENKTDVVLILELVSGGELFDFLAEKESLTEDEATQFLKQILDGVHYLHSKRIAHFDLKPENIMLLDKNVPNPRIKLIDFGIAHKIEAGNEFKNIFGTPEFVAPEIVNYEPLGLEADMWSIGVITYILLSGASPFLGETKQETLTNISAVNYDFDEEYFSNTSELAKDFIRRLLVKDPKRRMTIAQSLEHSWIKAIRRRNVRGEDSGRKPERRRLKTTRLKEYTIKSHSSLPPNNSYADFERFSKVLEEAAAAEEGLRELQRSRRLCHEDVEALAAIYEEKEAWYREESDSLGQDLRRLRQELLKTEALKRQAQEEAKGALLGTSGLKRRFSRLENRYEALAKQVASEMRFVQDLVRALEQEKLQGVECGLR
Focal adhesion kinase 1, sequence (Q05397 2-1052 limits assumed): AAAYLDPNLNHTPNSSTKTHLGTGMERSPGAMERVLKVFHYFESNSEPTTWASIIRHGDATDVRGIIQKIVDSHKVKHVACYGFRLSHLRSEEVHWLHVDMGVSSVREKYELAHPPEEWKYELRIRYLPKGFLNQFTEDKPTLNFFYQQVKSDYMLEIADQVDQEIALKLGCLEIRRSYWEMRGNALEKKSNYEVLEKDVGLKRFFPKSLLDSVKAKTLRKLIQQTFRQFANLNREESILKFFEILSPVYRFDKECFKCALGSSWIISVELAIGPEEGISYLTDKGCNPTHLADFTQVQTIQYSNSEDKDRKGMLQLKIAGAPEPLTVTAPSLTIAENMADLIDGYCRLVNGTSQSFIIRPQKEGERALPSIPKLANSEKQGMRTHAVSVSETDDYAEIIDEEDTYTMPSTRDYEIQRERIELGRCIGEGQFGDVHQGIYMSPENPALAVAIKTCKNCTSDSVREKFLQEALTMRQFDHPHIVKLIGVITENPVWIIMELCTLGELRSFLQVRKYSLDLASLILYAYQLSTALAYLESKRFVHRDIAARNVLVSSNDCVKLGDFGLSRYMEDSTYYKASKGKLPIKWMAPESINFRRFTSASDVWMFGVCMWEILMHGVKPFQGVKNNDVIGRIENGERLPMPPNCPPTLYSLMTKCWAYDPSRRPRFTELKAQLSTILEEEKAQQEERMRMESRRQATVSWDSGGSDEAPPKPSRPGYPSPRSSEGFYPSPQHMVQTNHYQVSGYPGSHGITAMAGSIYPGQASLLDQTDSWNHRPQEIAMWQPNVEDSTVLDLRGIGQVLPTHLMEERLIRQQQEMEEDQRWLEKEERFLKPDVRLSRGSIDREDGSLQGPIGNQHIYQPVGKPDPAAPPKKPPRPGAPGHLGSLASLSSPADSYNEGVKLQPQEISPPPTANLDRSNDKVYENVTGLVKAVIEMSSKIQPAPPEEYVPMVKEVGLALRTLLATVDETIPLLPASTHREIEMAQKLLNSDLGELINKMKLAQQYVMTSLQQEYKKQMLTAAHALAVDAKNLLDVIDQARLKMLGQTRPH
Serine/threonine-protein kinase 26, sequence (Q9P289 2-416 limits assumed): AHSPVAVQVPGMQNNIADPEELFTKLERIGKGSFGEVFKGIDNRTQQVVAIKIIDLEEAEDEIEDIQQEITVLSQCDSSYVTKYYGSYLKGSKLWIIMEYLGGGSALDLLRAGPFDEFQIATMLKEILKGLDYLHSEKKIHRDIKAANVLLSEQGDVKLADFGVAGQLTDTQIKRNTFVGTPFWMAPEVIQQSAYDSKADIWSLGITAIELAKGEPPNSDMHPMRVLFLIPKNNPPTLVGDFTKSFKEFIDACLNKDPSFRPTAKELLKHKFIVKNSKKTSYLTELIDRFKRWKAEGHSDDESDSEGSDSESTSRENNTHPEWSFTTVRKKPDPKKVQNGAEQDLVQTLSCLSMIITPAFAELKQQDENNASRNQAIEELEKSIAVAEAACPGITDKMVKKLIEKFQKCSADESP

pXC50 [1]: < 4.3 M
SMILES: CCn1c(-c2nc3cc(C(=O)N4CCCC(N)C4)ccc3n2C)cc2ccccc21 (centres undefined)

% of inhibition [2]: -3.8%
SMILES: CC[C@@H]1[C@H](F)C(=O)N[C@@H]1COc1nccc2cc(C(N)=O)c(OC)cc12 [ZIMLOVISERTIB]

% of control [3]: 100%
SMILES: CCN(CC)CCCCNc1ncc2cc(-c3cc(OC)cc(OC)c3)c(NC(=O)NC(C)(C)C)nc2n1

SMILES: COc1cc(N(C)c2ccnc3ccc(C(F)(F)F)cc23)cc(OC)c1OC
% binding [4]: 55%

% of control ([6]; at 1 µM): 106%
% of control ([6]; at 5 µM): 92%
% of control [7]: 81%
SMILES: C=CC(=O)Nc1cccc(C(=O)Nc2ccc(Nc3cc(-c4[nH]c(SC)nc4C)ccn3)cc2)c1
% of control ([5]; at 1 µM): 88%
% of control ([5]; at 5 µM): 88%
